# Results reported in patent US10064858B2, “Methods and compositions for treating bacterial infections with iron chelators” (THE UNITED STATES OF AMERICA, AS REPRESENTED BY THE …, priority 2011, dated 2018).
# Read-outs that look alike come from different tables or passages of the source.
# Experiments:
# Assay type in all cases: cell-based
# [1] = tested on: clinical isolates of A. baumannii; test: MIC for clinical isolates in CAMHB media (Table 3); details: Acinetobacter baumannii
# Protocol: (§1) Individual MICs were determined following the microdilution method recommended by CLSI in cationic-adjusted Mueller-Hinton Broth (CAMHB), or M9 media. […] Tests were performed in triplicate. MIC of iron chelators were determined for noscomial ESKAPE pathogens.
# [2] = tested on: K. pneumonia; test: MIC in RPMI1640 media (Table 2); details: Klebsiella pneumoniae
# Protocol: (§2) […] […] Tests were performed in triplicate. MIC of iron chelators were determined for noscomial ESKAPE pathogens.
# (§3) This media is closer to the iron levels in the human body. MICs are in ug/mL.
# [3] = tested on: E. coli; test: MIC in RPMI1640 media (Table 2)
# Protocol: as §2, §3
# [4] = tested on: P. aeruginosa; test: MIC in RPMI1640 media (Table 2); details: Pseudomonas aeruginosa
# Protocol: as §2, §3
# [5] = tested on: Acinetobacter baumannii; test: MIC in RPMI1640 media (Table 2)
# Protocol: as §2, §3
# [6] = tested on: multi-drug resistant bacterial species; test: Time kill method, synergy with rifampin (summary)
# Protocol: (§4) Reductions in colony forming units (CFU)/mL were determined over time (time-kill assay) after exposure to VK28 and deferiprone (DFP), the two iron chelators that performed best in MIC assays when compared to controls. To better represent the iron content found in the human body, MIC and time-kill assays were also determined in minimal media and tissue culture media. Time-Kill assays were performed as previously described in G. P. Neupane et al., “In vitro time-kill activities of ciprofloxacin alone and in combination with the iron chelator deferasirox against Vibrio vulnificus,” European Journal of Clinical Microbiology and Infectious Diseases, 407-410 (2010); and R. L. White, et al., “Comparison of Three Different In Vitro Methods of Detecting synergy: Time-Kill, Checkerboard, and E test,” Journal of Antimicrobial Agents and Chemotherapy, 1914-1918 (1996). Initial inocula, for example 1×10^6 CFU/mL or 1×10^7 CFU/mL were challenged with iron chelator with and/or without an antibiotic. Cells were allowed to grow in CAMHB at 37° C. for 24 hours. Time-kill results were analyzed by determining the change in log 10 numbers of CFU/ml at 0, 6, and 24 h, compared to counts at 0 h. Antimicrobials were considered bactericidal at the lowest concentration that reduced the size of the original inoculum by >3 log 10 CFU/ml (99.9%) over each of the time periods and were considered bacteriostatic if the inoculum's size was reduced by 0 to <3 log 10 CFU/ml.
# [7] = tested on: E. coli EC35218; test: Time-kill assay in CAMHB; details: E. coli 35718; 1.5×MIC Apo6619 in combination with 0.75×MIC Rifampin; 0, 5 and 24 hours
# Protocol: as §4
# In this example, time-kill assays were performed as described in Example 9 against different multi-drug resistant bacteria, namely E. coli and MRSA.
# In this example, time-kill assays were performed as described in Example 9 using ApoL1 as the iron chelator against two different E. coli strains. […] Time-kill results were analyzed by determining the change in log 10 numbers of CFU/mL at 6 and 24 hours.
# In this example, time-kill assays were performed as described in Example 9 using Apo6619 as the iron chelator in combination with Rifampin against E. coli 35718. […] Time-kill results were analyzed by determining the change in log 10 numbers of CFU/mL at 0, 5 and 24 hours.
# [8] = tested on: K. pneumonia; test: MIC, CLSI microdilution (Tables 1 and 6); details: Klebsiella pneumoniae, Table 1, read-out: MIC of Iron Chelators
# Protocol: (§5) The minimal inhibitory concentration (MIC) of non-toxic iron chelators was determined against standard strains of MDR bacteria and clinical isolates according to the guidelines of the Clinical and Laboratory Standards Institute (CLSI).
# as §1
# (§6) MIC were determined in CAMHB media as described above in Example 8.
# [9] = tested on: E. coli; test: MIC, CLSI microdilution (Tables 1 and 6); details: Escherichia coli, Table 1, read-out: MIC of Iron Chelators
# Protocol: as §5, §1, §6
# [10] = tested on: P. aeruginosa; test: MIC, CLSI microdilution (Tables 1 and 6); details: Pseudomonas aeruginosa, Table 1, read-out: MIC of Iron Chelators
# Protocol: as §5, §1, §6
# [11] = tested on: Acinetobacter baumannii; test: MIC, CLSI microdilution (Tables 1 and 6)
# Protocol: as §5, §1, §6
# [12] = tested on: S. aureus; test: MIC, CLSI microdilution (Tables 1 and 6); details: Staphylococcus aureus, Table 1, read-out: MIC of Iron Chelators
# Protocol: as §5, §1, §6
smiles,measurement,setting,value
"CNC(=O)c1c(O)c(=O)cc(C)n1C1CC1 [Apo6619, 1-cyclopropyl-3-hydroxy-6-methyl-4-oxo-1,4-dihydro-pyridine-2-carboxylic acid methylamide]",MIC,"[1]; AB967, read-out: MIC of Iron Chelators",250 mg/L
same,MIC,"[1]; AB2828, read-out: MIC of Iron Chelators",500 mg/L
same,MIC,"[1]; AB3340, read-out: MIC of Iron Chelators",250 mg/L
same,MIC,"[1]; AB3560, read-out: MIC of Iron Chelators",500 mg/L
same,MIC,"[1]; AB3638, read-out: MIC of Iron Chelators",500 mg/L
same,MIC,"[1]; AB3785, read-out: MIC of Iron Chelators",500 mg/L
same,MIC,"[1]; AB3806, read-out: MIC of Iron Chelators",1000 mg/L
same,MIC,"[1]; AB3917, read-out: MIC of Iron Chelators",500 mg/L
same,MIC,"[1]; AB3927, read-out: MIC of Iron Chelators",250 mg/L
same,MIC,"[1]; AB4025, read-out: MIC of Iron Chelators",500 mg/L
same,MIC,"[1]; AB4026, read-out: MIC of Iron Chelators",500 mg/L
same,MIC,"[1]; AB4027, read-out: MIC of Iron Chelators",500 mg/L
same,MIC,"[1]; AB4052, read-out: MIC of Iron Chelators",500 mg/L
same,MIC,"[1]; AB4269, read-out: MIC of Iron Chelators",250 mg/L
same,MIC,"[1]; AB4448, read-out: MIC of Iron Chelators",500 mg/L
same,MIC,"[1]; AB4456, read-out: MIC of Iron Chelators",500 mg/L
same,MIC,"[1]; AB4490, read-out: MIC of Iron Chelators",500 mg/L
same,MIC,"[1]; AB4498, read-out: MIC of Iron Chelators",500 mg/L
same,MIC,"[1]; AB4795, read-out: MIC of Iron Chelators",500 mg/L
same,MIC,"[1]; AB4857, read-out: MIC of Iron Chelators",500 mg/L
same,MIC,"[1]; AB4878, read-out: MIC of Iron Chelators",500 mg/L
same,MIC,"[1]; AB4932, read-out: MIC of Iron Chelators",500 mg/L
same,MIC,"[1]; AB4957, read-out: MIC of Iron Chelators",250 mg/L
same,MIC,"[1]; AB4991, read-out: MIC of Iron Chelators",500 mg/L
same,MIC,"[1]; AB5001, read-out: MIC of Iron Chelators",250 mg/L
same,MIC,"[1]; AB5075, read-out: MIC of Iron Chelators",250 mg/L
same,MIC,"[1]; AB5197, read-out: MIC of Iron Chelators",500 mg/L
same,MIC,"[1]; AB5256, read-out: MIC of Iron Chelators",250 mg/L
same,MIC,"[1]; AB5674, read-out: MIC of Iron Chelators",250 mg/L
same,MIC,"[1]; AB5711, read-out: MIC of Iron Chelators",250 mg/L
same,MIC,"[2]; ATCC700603, ATCC 700603, read-out: MIC of Iron Chelators",500 mg/L
same,MIC,"[2]; BAA2146, BAA-2146, read-out: MIC of Iron Chelators",500 mg/L
same,MIC,"[3]; Escherichia coli, 35718, read-out: MIC of Iron Chelators",250 mg/L
same,MIC,"[3]; Escherichia coli, ATCC43888, ATCC 43888 (0157:H7), read-out: MIC of Iron Chelators",250 mg/L
same,MIC,"[4]; ATCC27853, ATCC 27853, read-out: MIC of Iron Chelators",> 500 mg/L
same,MIC,"[4]; PAO1, read-out: MIC of Iron Chelators",500 mg/L
same,MIC,"[5]; ATCC17978, ATCC 17978, read-out: MIC of Iron Chelators",64 mg/L
same,MIC,"[5]; ATCC19606, ATCC 19606, read-out: MIC of Iron Chelators",125 mg/L
same,"synergy with rifampin, time kill method",[6],strong synergy
same,time kill curves,[7],combinational effect
same,MIC,"[8]; ATCC700603, ATCC 700603",> 500 mg/L
same,MIC,"[8]; BAA2146, BAA-2146",> 500 mg/L
same,MIC,"[9]; ATCC35218, ATCC 35218",250 mg/L
same,MIC,"[9]; ATCC43888, ATCC 43888 (0157:H7)",250 mg/L
same,MIC,"[10]; ATCC27853, ATCC 27853",> 500 mg/L
same,MIC,[10]; PAO1,> 500 mg/L
same,MIC,"[11]; ATCC17978, ATCC 17978, Table 1, read-out: MIC of Iron Chelators",250 mg/L
same,MIC,"[11]; ATCC19606, ATCC 19606, Table 1, read-out: MIC of Iron Chelators",250 mg/L
same,MIC,"[12]; ATCC25923, ATCC 25923",> 500 mg/L
same,MIC,[12]; ATCC 43300 (MRSA),> 500 mg/L
